Cytotoxicity data for 102 compounds are collected here from ChEMBL document CHEMBL3507680, “University of Dundee, Gates Library screen for HepG2 cell viability”.

A short description of the data set: Human HepG2 cell viability assay in 384 well format. The data set is classed as toxicity, cell-based. The following applies: HepG2 cells, read-out: Inhibition. The arrangement: dose 125 nL, time 70.5 hour; concentration not given beside the values.

Structures are written as SMILES.

Take `CN(C)C1CCCN(C(=O)NCc2ccccc2-n2cccn2)C1` (configuration not stated): the cytotoxicity at 70.5 h worked out at 10.5%. The figure for `Cc1c(C(=O)N2CCCC(n3cccn3)C2)nnn1-c1ccccc1` (configuration not stated) is -2.31%. The figure for `Cc1ccc(CNC(=O)CN2CCCCC2Cn2cncn2)s1` (configuration not stated) is -7.67%; for `CCc1noc(C(C)N2CCN(C)CC2)n1` (configuration not stated) it is -7.05%; for `Cc1cnn(C2CCCN(C(=O)Cc3ccc(C#N)cc3)C2)c1` (configuration not stated) it is -2.96%. On to `Cc1cnn(CC2CCCN2CCCS(=O)(=O)N(C)C)c1` (configuration not stated), for which the cytotoxicity at 70.5 h was 2.72%.

For the compound `CN(Cc1ccc2c(c1)OCO2)C(=O)Cn1cccnc1=O`, the cytotoxicity at 70.5 h is 17.3%. For the compound `NC(=O)C1CCN(C(=O)NCc2ccccc2-n2cccn2)CC1`, the cytotoxicity at 70.5 h was -4.82%. The figure for `CC(=O)NC1CCCN(C(=O)Nc2cccnc2-n2cccn2)C1` (configuration not stated) is -6.08%. Turning to `CN(C(=O)Cc1ccccc1Cl)C1CCN(c2ccccn2)CC1`, the cytotoxicity at 70.5 h came out at 2.75%.

Take `Cc1cnn(C2CCCN(C(=O)Cc3ccc4c(c3)CCO4)C2)c1` (configuration not stated): the cytotoxicity at 70.5 h came to 13.9%. For the compound `CN(C(=O)Cc1ccccc1F)C1CCN(c2ccccn2)CC1`, the cytotoxicity at 70.5 h is -3.14%. On to `Cc1nn(-c2ccccc2)cc1C(=O)N1CCCC(n2ccnc2)C1` (configuration not stated), for which the cytotoxicity at 70.5 h is -0.753%. As for `Cc1cc(C)n(CC2CCCN2C(=O)c2ccc3nnc(C)n3c2)n1` (configuration not stated), the cytotoxicity at 70.5 h is -0.407%. `Cn1cnc2c1CCN(CCCS(=O)(=O)c1ccccc1)C2`: the cytotoxicity at 70.5 h is 24.3%. As for `CCN1CCC(CNC(=O)Nc2cc(C)on2)C1` (configuration not stated), the cytotoxicity at 70.5 h was -4.44%. On to `Cc1cc(C)cc(OCCN(C)C(=O)NC(C)c2nncn2C)c1` (configuration not stated), for which the cytotoxicity at 70.5 h is 17.7%. For `COc1ccc(N2CCN(C(=O)NC(C)c3nncn3C)CC2)cc1` (configuration not stated), the cytotoxicity at 70.5 h is -3.61%. Next, `CC(NC(=O)N1CCC(c2ccccc2)CC1)c1nncn1C` (configuration not stated): -3.28%. Take `CCOc1ncccc1CNC(=O)NCCNC(=O)c1ccco1`: the cytotoxicity at 70.5 h is -4.58%.

Consider `Cc1cnn(CC2CN(CCc3cccs3)CCO2)c1` (configuration not stated), for which the cytotoxicity at 70.5 h is -2.69%. Next, `COc1cc(C(=O)N2CCCS2(=O)=O)ccc1OC(C)C`: 21.8%. The figure for `O=C(Cc1csc(-c2ccco2)n1)N1CCCC1Cn1cccn1` (configuration not stated) is -7.55%; for `CN(Cc1cccs1)C(=O)CN1CCOC(Cn2cncn2)C1` (configuration not stated) it is 17.4%; for `Cc1nc(C(=O)N2CCCC2c2noc(C)n2)c[nH]1` (configuration not stated) it is -4.04%. The figure for `Cn1cnc2c1CCN(CCS(=O)(=O)c1ccc(Cl)cc1)C2` is -5.54%; for `Cc1cc(CN(C)C(=O)c2ccc(OC(C)C)nc2)no1` it is 20%; for `Cn1c(CN2CCCC(c3noc(C4CC4)n3)C2)cc(=O)n(C)c1=O` (configuration not stated) it is -11.3%. Regarding `Cc1cc(OCC(=O)N2CCCC2c2noc(C)n2)no1` (configuration not stated), the cytotoxicity at 70.5 h is -13.8%. The figure for `CC(C)c1cc(NC(=O)CN2CCCC2c2noc(C(C)C)n2)on1` (configuration not stated) is -12%; for `Cc1cccc(C(=O)NCCCN2CCc3ccccc3C2)c1C` it is -7.53%. The figure for `Cn1ncc(NCc2cccc(F)c2)c(Cl)c1=O` is -13.3%; for `CC(Cn1cccn1)NC(=O)NCCc1cccs1` (configuration not stated) it is -6.38%. Next, `Cc1ccccc1C(=O)NCCCN1CCc2ccccc2C1`: 19.4%; `CNc1snc(C)c1C(=O)N1CCCC(n2cccn2)C1` (configuration not stated): -15%. For `CNc1snc(C)c1C(=O)N1CCCC(n2ccnc2)C1` (configuration not stated), the cytotoxicity at 70.5 h was -9.44%. Turning to `Cc1cn2c(n1)CCC(NC(=O)c1cc[nH]n1)C2` (configuration not stated), the cytotoxicity at 70.5 h is -4.85%. The figure for `Cc1ccc(-c2noc(CN3CCc4nn(C)c(=O)cc4C3)n2)cc1` is -4.24%; for `Cn1nc2c(cc1=O)CN(Cc1nc(-c3cccnc3)no1)CC2` it is -3.78%. The figure for `CC(C)c1nc(C2CCCN2Cc2cc(=O)n(C)c(=O)n2C)no1` (configuration not stated) is -4.31%; for `Cc1cc(NC(=O)CN2CCCC2c2noc(C(C)C)n2)no1` (configuration not stated) it is 14.1%; for `Cc1cc(NC(=O)CN2CCCC2c2noc(C3CC3)n2)n(C)n1` (configuration not stated) it is -10.4%. Consider `COc1cccc(CN2CCCC(c3cc(C(N)=O)[nH]n3)C2)c1` (configuration not stated), for which the cytotoxicity at 70.5 h was -12.6%.

For the compound `Cn1nc2c(cc1=O)CN(Cc1nc(-c3ccco3)no1)CC2`, the cytotoxicity at 70.5 h was -7.45%.

On to `CNc1snc(C)c1C(=O)N1CCCC(n2cc(C)cn2)C1` (configuration not stated), for which the cytotoxicity at 70.5 h is -8.17%. Next, `CCn1ccnc1CN1CCN(CC(O)c2ccccc2)CC1` (configuration not stated): -15.4%; `CC(C)c1ncncc1C(=O)NCCN1CCCS1(=O)=O`: -12.7%; `Cc1cccc(C(=O)N2CCCN(Cc3cnn(C)c3)CC2)n1`: -19.9%. Next, `COc1cccc(COCC(=O)N2CCCC(n3ccnc3C)C2)c1` (configuration not stated): -15.7%; `CCn1ccnc1CN1CCCN(C(=O)c2cccc(C#N)c2)CC1`: -15.8%; `c1ncn(CC2CCCN2Cc2cn3ccsc3n2)n1` (configuration not stated): -16.9%. With `COCCc1noc(CN2CCCCC2Cn2cc(C)cn2)n1` (configuration not stated), the cytotoxicity at 70.5 h was -11.7%.

On to `CCc1nc(CNCC2CCCN2c2cc(NC)ncn2)cs1` (configuration not stated), for which the cytotoxicity at 70.5 h is -4.75%.

For `CC(C)c1nnc2n1CCN(Cc1csc(CC(=O)N(C)C)n1)C2`, the cytotoxicity at 70.5 h amounted to 49.9%. Take `CCc1noc(C(C)N2CCN(Cc3ncc(C(C)(C)C)o3)CC2)n1` (configuration not stated): the cytotoxicity at 70.5 h was 11.8%. `Cc1cc(C(C)C(=O)N2CCCN(Cc3cscn3)CC2)c(C)o1` (configuration not stated): the cytotoxicity at 70.5 h came to 18.7%.

For `COC(C(=O)N1CCCN(Cc2cscn2)CC1)c1ccccc1` (configuration not stated), the cytotoxicity at 70.5 h stood at 12.8%. With `CCc1noc(C(C)N2CCN(Cc3noc(C)n3)CC2)n1` (configuration not stated), the cytotoxicity at 70.5 h turned out to be 26.6%.

Regarding `Cc1cc(C)n(CC2CN(Cc3nnsc3Cl)CCO2)n1` (configuration not stated), the cytotoxicity at 70.5 h is -13%. Next, `Cc1ccc(NC2CCN(C(=O)Cn3nc(C)cc3C)CC2)nn1`: -6.3%; `COc1ccc(-c2noc(CN3CCc4cncnc4C3)n2)cc1`: -8.79%; `O=C(c1cccnc1N1CCOCC1)N1CCCC(n2ccnc2)C1` (configuration not stated): -6.03%.

As for `Cc1oc(C)c(C(=O)NCc2ccccn2)c1C`, the cytotoxicity at 70.5 h is -6.3%. Consider `CCC1CN(CC(=O)Nc2sccc2C#N)CCO1` (configuration not stated), for which the cytotoxicity at 70.5 h was -8.24%.

With `N#Cc1cn(C2CC2)c(=O)n(CC(O)c2ccccc2F)c1=O` (configuration not stated), the cytotoxicity at 70.5 h is -17%. For `COc1ccc(C(O)CNC(=O)Nc2cc(C)nn2C)cc1` (configuration not stated), the cytotoxicity at 70.5 h came to 25.3%.

As to `Cc1oc(C)c(C(=O)NCc2ccccc2S(=O)(=O)N(C)C)c1C`, the cytotoxicity at 70.5 h was -2.12%.

For `Cc1cc(C)n(CC(=O)N2CCC(NS(=O)(=O)c3ccccc3)CC2)n1`, the cytotoxicity at 70.5 h was -5.45%. The figure for `Cc1cc(C)c(CNC(=O)C2CCCN(c3cnccn3)C2)c(=O)[nH]1` (configuration not stated) is -14.3%; for `COc1cc(CNCCc2cnn(C)c2)cc2c1OCCO2` it is -12.1%; for `Cc1noc2ncc(C(=O)NCC3CCN(C(C)C)C3)cc12` (configuration not stated) it is -4.09%. Next, `Cc1nc2cc(=O)[nH]n2c(C)c1CC(=O)Nc1ccc2ccccc2n1`: -6.2%. Next, `Cc1cnn(CC2CN(CC(=O)Nc3sccc3C#N)CCO2)c1` (configuration not stated): -0.129%. In the case of `Cn1cnnc1CNC(=O)Nc1cc(C(F)(F)F)c[nH]c1=O`, the cytotoxicity at 70.5 h is -7.22%.

For the compound `Cc1ccccc1CNC(=O)Cc1c(C)nc2cc(=O)[nH]n2c1C`, the cytotoxicity at 70.5 h was -2.94%. The figure for `Cc1nc(C)n(CC2CCCN(CC(=O)Nc3nncs3)C2)n1` (configuration not stated) is -6.97%. The figure for `Cc1ccc(NC2CCN(C(=O)c3c(C)noc3C)CC2)nn1` is -2.81%. The figure for `O=C(COc1ccc(C(F)(F)F)cc1)NS(=O)(=O)c1cccnc1` is -3.77%; for `Cc1nnc2n1CCN(C(=O)c1cc(Cl)c[nH]1)C2` it is -6.67%.

With `CCCC1CCCN(Cc2csc(-c3cnn(C)c3)n2)CC1` (configuration not stated), the cytotoxicity at 70.5 h is 14.1%. Next, `Cn1cc(-c2nc(CN3CCN(CCO)CC3)cs2)cn1`: 12.2%; `CCC1CN(c2nnc(C)c(C)c2C#N)CCO1` (configuration not stated): 8.71%; `O=C(Cn1nc(-c2ccc(F)cc2)oc1=O)NCc1ccc(F)cc1`: 30.8%. Turning to `N#Cc1ccc(C(=O)NCCCNc2ccc(C(F)(F)F)cn2)cc1`, the cytotoxicity at 70.5 h was 0.522%. The figure for `CCn1cc(NC(=O)NCC(c2cccs2)N(C)C)cn1` (configuration not stated) is -4.7%; for `COCCOc1ncccc1C(=O)Nc1ccc(-n2cncn2)c(F)c1` it is -6.17%. The figure for `CCCNC(=O)CCC(=O)Nc1ccc(-n2cncn2)c(F)c1` is 36%; for `O=C(Cn1cnc(NC(=O)CC2CCCC2)n1)NCc1ccccc1` it is 1.33%. For `COCCNC(=O)Nc1ccc(-n2cncn2)c(F)c1`, the cytotoxicity at 70.5 h worked out at 40.1%. Turning to `CCNC(=O)Nc1ccc2c(ccn2CC(=O)N(CC)CC)c1`, the cytotoxicity at 70.5 h was -0.739%. The figure for `O=C(CCCc1nc2ccccc2[nH]1)N1CCCC(n2cccn2)C1` (configuration not stated) is -1.12%; for `CN1CCCC1CNC(=O)CCCOCc1ccccc1` (configuration not stated) it is -3.14%; for `Cc1cc(CN2CCN(C(=O)NC(C)Cn3ccnc3)CC2)no1` (configuration not stated) it is -3.28%. Next, `Cc1nnc(N2CCOC(Cn3cccn3)C2)c(C#N)c1C` (configuration not stated): -8.57%. Turning to `CC(C)c1nnc2n1CCN(C(=O)CN1CCc3sccc3C1)C2`, the cytotoxicity at 70.5 h is -4.56%. `c1cnnc(N2CCCC2CNCc2cc[nH]n2)c1` (configuration not stated): the cytotoxicity at 70.5 h is 11%. Consider `COCC(c1cccc(C(F)(F)F)c1)N(C)C(=O)c1cc(C)n[nH]1` (configuration not stated), for which the cytotoxicity at 70.5 h turned out to be 18.4%. With `C=C1c2ccccc2C(=O)N1CCC(=O)N1CCNC(=O)C1`, the cytotoxicity at 70.5 h was found to be 3.89%.

Consider `CCOCC(O)CN1CCN(C(=O)Cc2ccc(C)nc2)CC1` (configuration not stated), for which the cytotoxicity at 70.5 h was -0.471%. Take `COCC(c1cccc(C(F)(F)F)c1)N(C)C(=O)c1ccncc1` (configuration not stated): the cytotoxicity at 70.5 h was 30.8%. `Cc1noc(CCCC(=O)NC(C)c2cccnc2)n1` (configuration not stated): the cytotoxicity at 70.5 h came to 0.606%. The figure for `COc1cc(CNCCc2nc(C)cs2)cc2c1OCCO2` is -0.752%.
